Source: ChEMBL document CHEMBL1154779, “Synthesis and adrenolytic activity of 1-(1H-indol-4-yloxy)-3-(2-(2-methoxy phenoxy)ethylamino)propan-2-ol analogs and its enantiomers. Part 2” (Eur J Med Chem, 2009)
pKi: −log10 of the molar value.

Legend:
[1] = target: T1, Adrenergic receptor alpha-1 (Rattus norvegicus, UniProt P15823+P23944+P43140); test: Displacement of [3H]Prazosin from alpha1 adrenergic receptor in Wistar rat cerebral cortex membrane by liquid scintillation counting; type: tissue-based
T1 sequence (P15823 whole entry): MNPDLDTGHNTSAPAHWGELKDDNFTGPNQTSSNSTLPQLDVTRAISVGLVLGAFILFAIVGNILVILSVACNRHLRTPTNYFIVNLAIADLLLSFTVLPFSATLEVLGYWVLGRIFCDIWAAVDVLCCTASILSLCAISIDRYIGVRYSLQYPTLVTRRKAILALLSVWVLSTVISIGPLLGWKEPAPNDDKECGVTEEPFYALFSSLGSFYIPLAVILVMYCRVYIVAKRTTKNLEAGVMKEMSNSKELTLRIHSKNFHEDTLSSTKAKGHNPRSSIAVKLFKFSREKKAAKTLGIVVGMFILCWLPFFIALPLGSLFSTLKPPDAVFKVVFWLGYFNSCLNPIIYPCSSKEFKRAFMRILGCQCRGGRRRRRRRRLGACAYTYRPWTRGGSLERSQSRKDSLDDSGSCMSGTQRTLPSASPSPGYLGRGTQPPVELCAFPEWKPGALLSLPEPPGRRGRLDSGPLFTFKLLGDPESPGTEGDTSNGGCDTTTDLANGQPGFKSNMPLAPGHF
T1 sequence (P23944 whole entry): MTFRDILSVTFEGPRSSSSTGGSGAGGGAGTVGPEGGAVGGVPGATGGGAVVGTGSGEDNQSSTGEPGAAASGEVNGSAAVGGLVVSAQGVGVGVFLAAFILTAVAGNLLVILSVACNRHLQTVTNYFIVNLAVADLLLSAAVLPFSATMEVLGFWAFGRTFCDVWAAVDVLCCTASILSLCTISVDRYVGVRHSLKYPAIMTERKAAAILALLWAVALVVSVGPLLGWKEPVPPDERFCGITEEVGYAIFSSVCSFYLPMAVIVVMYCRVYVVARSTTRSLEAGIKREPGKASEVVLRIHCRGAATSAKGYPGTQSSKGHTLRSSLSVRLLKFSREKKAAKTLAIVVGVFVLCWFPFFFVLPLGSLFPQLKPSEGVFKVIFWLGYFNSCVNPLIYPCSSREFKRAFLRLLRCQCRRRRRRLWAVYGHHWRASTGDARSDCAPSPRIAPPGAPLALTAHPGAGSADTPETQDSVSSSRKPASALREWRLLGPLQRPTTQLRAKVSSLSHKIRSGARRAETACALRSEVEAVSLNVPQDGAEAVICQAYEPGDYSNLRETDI
T1 sequence (P43140 whole entry): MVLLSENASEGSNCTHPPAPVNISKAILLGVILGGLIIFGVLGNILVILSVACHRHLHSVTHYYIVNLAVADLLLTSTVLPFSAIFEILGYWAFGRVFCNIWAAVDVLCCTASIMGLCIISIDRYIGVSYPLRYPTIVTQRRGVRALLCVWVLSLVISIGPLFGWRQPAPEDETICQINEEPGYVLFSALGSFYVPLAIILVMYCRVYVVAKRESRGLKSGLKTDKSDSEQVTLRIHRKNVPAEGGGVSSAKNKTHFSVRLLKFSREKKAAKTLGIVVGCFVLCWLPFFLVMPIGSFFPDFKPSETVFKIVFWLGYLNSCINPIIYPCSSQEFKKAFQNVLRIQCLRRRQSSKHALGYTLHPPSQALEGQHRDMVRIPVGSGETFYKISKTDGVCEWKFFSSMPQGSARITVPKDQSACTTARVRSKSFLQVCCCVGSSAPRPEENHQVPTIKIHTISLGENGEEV

Rattus norvegicus [2] = test: Effect on heart rate in anesthetized Wistar rat assessed as Q-T intervals time at 1 mg/kg, iv after 15 mins by electrocardiography; type: functional
Rattus norvegicus [3] = test: Effect on heart rate in anesthetized Wistar rat assessed as Q-T intervals time at 1 mg/kg, iv after 5 mins by electrocardiography; type: functional
Rattus norvegicus [4] = test: Effect on heart rate in anesthetized Wistar rat assessed as QRS complex time at 1 mg/kg, iv after 15 mins by electrocardiography; type: functional
Rattus norvegicus [5] = test: Effect on heart rate in anesthetized Wistar rat assessed as heart beats per min at 1 mg/kg, iv after 15 mins by electrocardiography; type: functional
Rattus norvegicus [6] = test: Effect on heart rate in anesthetized Wistar rat assessed as P-Q intervals time at 1 mg/kg, iv after 5 mins by electrocardiography; type: functional
Rattus norvegicus [7] = test: Effect on heart rate in anesthetized Wistar rat assessed as heart beats per min at 1 mg/kg, iv after 1 min by electrocardiography; type: functional
Rattus norvegicus [8] = test: Effect on heart rate in anesthetized Wistar rat assessed as QRS complex time at 1 mg/kg, iv after 1 min by electrocardiography; type: functional
[9] = Displacement of [3H]CGP12177 from beta-1 adrenergic receptor in Wistar rat cerebral cortex membrane by liquid scintillation counting; type: tissue-based
Rattus norvegicus [10] = test: Effect on heart rate in anesthetized Wistar rat assessed as Q-T intervals time at 1 mg/kg, iv after 1 min by electrocardiography; type: functional
Rattus norvegicus [11] = test: Effect on heart rate in anesthetized Wistar rat assessed as P-Q intervals time at 1 mg/kg, iv after 1 min by electrocardiography; type: functional
Rattus norvegicus [12] = test: Effect on heart rate in anesthetized Wistar rat assessed as P-Q intervals time at 1 mg/kg, iv after 15 mins by electrocardiography; type: functional
Rattus norvegicus [13] = test: Effect on heart rate in anesthetized Wistar rat assessed as QRS complex time at 1 mg/kg, iv after 5 mins by electrocardiography; type: functional
Rattus norvegicus [14] = test: Antiarrhythmic activity in Wistar rat assessed as inhibition of adrenaline-induced premature ventricular beats at 1 mg/kg, iv administered 15 mins before adrenaline challenge measured after 15 mins by electrocardiography; type: functional; conditions: Heart
Rattus norvegicus [15] = test: Effect on heart rate in anesthetized Wistar rat assessed as heart beats per min at 1 mg/kg, iv after 5 mins by electrocardiography; type: functional

Row | Ki [1] | pKi [9] | Compound | Activity (Rattus norvegicus [2]) | Activity (Rattus norvegicus [3]) | Activity (Rattus norvegicus [4]) | Activity (Rattus norvegicus [5]) | Activity (Rattus norvegicus [6]) | Activity (Rattus norvegicus [7]) | Activity (Rattus norvegicus [8]) | Activity (Rattus norvegicus [10]) | Activity (Rattus norvegicus [11]) | Activity (Rattus norvegicus [12]) | Activity (Rattus norvegicus [13]) | ED50 (Rattus norvegicus [14]) | Activity (Rattus norvegicus [15])
1 | 0.0609 µM | 6.28 | COc1ccccc1OCCNC[C@@H](O)COc1ccc(OC)c2[nH]ccc12 | 81.7 ms | 88 ms | 24.5 ms | 255.2 bpm | 59.7 ms | 267.4 bpm | 22.7 ms | 89.2 ms | 58.5 ms | 58 ms | 23.3 ms | 0.38 mg/kg | 259 bpm
2 | 0.0113 µM | 6.05 | COc1ccccc1OCCNC[C@H](O)COc1c(OC)ccc2[nH]ccc12 | 118 ms | 111.3 ms | 28 ms | 367.6 bpm | 46 ms | 388.1 bpm | 26 ms | 107.3 ms | 48.7 ms | 46 ms | 28.7 ms | 0.3 mg/kg | 381 bpm
3 | 0.0458 µM | 5.47 | COc1ccccc1OCCNC[C@@H](O)COc1c(OC)ccc2[nH]ccc12 | 113.3 ms | 106 ms | 28.7 ms | 387 bpm | 42.7 ms | 395.5 bpm | 28 ms | 106.7 ms | 45.3 ms | 42 ms | 28.7 ms | 0.16 mg/kg | 403.2 bpm
4 | 0.0758 µM | 6.90 | COc1ccccc1OCCNCC(O)COc1ccc(OC)c2[nH]ccc12 (racemic) | 79.2 ms | 79.2 ms | 22.7 ms | 300 bpm | 59.4 ms | 297.3 bpm | 24.2 ms | 87.1 ms | 58.8 ms | 57.3 ms | 23 ms | 0.45 mg/kg | 292.2 bpm
5 | 0.0211 µM | 5.80 | COc1ccccc1OCCNCC(O)COc1c(OC)ccc2[nH]ccc12 (racemic) | 118 ms | 107.3 ms | 26 ms | 364.7 bpm | 51.3 ms | 376.3 bpm | 31.3 ms | 111.4 ms | 48.7 ms | 48 ms | 27.3 ms | 0.38 mg/kg | 372.9 bpm
6 | 0.1688 µM | 7.23 | COc1ccccc1OCCNC[C@H](O)COc1ccc(OC)c2[nH]ccc12 | 83 ms | 94.8 ms | 22.5 ms | 275.9 bpm | 56.7 ms | 292 bpm | 25 ms | 78.8 ms | 58.5 ms | 53.3 ms | 24.5 ms | 0.53 mg/kg | 292.3 bpm
